Experimental data as given in article PMC3519909 (PLoS Biology, 2012).

Assays:
[1] = biological target: T1, Ima5 (Saccharomyces cerevisiae, UniProt P40884); test: glucose release, crude extract of IMA5-overexpressing yeast; format: biochemical; details: relative to ima5 deletion mutant
T1 construct: crude extract of yeast overexpressing IMA5, compared with ima5 deletion mutant
T1 sequence (P40884 1-581): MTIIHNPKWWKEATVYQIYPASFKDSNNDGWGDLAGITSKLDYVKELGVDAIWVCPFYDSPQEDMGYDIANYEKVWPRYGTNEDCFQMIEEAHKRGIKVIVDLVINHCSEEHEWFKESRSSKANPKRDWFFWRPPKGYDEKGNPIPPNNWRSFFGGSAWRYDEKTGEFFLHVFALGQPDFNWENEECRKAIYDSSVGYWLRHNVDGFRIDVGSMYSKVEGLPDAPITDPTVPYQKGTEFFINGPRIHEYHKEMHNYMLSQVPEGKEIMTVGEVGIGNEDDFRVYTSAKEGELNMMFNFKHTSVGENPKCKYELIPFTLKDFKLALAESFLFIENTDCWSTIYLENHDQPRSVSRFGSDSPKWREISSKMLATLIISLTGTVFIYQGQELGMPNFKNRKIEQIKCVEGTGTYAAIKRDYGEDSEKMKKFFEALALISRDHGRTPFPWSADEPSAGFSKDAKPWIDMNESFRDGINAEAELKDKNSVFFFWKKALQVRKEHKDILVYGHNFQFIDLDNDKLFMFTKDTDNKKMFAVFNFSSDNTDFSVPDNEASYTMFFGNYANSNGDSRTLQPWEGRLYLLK

[2] = biological target: T2, K. lactis [GI: 50312678] (Kluyveromyces lactis, UniProt Q6CSK8); test: glucose oxidase/peroxidase coupled glucose release; format: biochemical; details: Michaelis-Menten or Hill fit
T2 construct: gene KLLA0_B00242g
T2 sequence (Q6CSK8 entry or part of it): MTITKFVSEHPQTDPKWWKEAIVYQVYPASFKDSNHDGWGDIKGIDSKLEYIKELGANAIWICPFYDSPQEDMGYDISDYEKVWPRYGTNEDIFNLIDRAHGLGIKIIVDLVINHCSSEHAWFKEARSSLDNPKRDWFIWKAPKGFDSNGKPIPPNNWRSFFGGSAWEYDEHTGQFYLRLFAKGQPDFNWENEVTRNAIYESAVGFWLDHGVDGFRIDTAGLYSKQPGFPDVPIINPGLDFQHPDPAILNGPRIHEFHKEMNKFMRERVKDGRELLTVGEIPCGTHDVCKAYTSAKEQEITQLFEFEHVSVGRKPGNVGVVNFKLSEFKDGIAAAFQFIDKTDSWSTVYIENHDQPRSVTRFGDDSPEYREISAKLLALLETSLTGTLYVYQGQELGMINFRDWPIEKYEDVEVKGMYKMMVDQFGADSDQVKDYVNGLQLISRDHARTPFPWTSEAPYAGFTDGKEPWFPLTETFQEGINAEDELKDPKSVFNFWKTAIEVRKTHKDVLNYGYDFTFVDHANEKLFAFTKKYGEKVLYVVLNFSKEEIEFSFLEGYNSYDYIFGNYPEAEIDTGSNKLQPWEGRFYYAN

[3] = substrate: CO[C@H]1O[C@H](CO)[C@@H](O)[C@H](O)[C@H]1O; test: glucose oxidase/peroxidase coupled glucose release; format: biochemical, Saccharomyces cerevisiae; details: Michaelis-Menten or Hill fit

OC[C@H]1O[C@H](OC[C@H]2OC(O)[C@H](O)[C@@H](O)[C@@H]2O)[C@H](O)[C@@H](O)[C@@H]1O (stereo partly shown) [isomaltose]
relative activity [1]: relative enzyme activity in crude extracts derived from a yeast strain overexpressing IMA5

OC[C@H]1O[C@H](O[C@H]2[C@H](O)[C@@H](O)C(O)O[C@@H]2CO)[C@H](O)[C@@H](O)[C@@H]1O (stereo partly shown) [maltose]
Km [2]: one of the paralogs retains the broad specificity of ancMalS

B1: Ima1 (Saccharomyces cerevisiae S288C) (protein)
chain: TISSAHPETEPKWWKEATFYQIYPASFKDSNDDGWGDMKGIASKLEYIKELGADAIWISPFYDSPQDDMGYDIANYEKVWPTYGTNEDCFALIEKTHKLGMKFITDLVINHCSSEHEWFKESRSSKTNPKRDWFFWRPPKGYDAEGKPIPPNNWKSYFGGSAWTFDEKTQEFYLRLFCSTQPDLNWENEDCRKAIYESAVGYWLDHGVDGFRIDVGSLYSKVVGLPDAPVVDKNSTWQSSDPYTLNGPRIHEFHQEMNQFIRNRVKDGREIMTVGEMQHASDETKRLYTSASRHELSELFNFSHTDVGTSPLFRYNLVPFELKDWKIALAELFRYINGTDCWSTIYLENHDQPRSITRFGDDSPKNRVISGKLLSVLLSALTGTLYVYQGQELGQINFKNWPVEKYEDVEIRNNYNAIKEEHGENSEEMKKFLEAIALISRDHARTPMQWSREEPNAGFSGPSAKPWFYLNDSFREGINVEDEIKDPNSVLNFWKEALKFRKAHKDITVYGYDFEFIDLDNKKLFSFTKKYNNKTLFAALNFSSDATDFKIPNDDSSFKLEFGNYPKKEVDASSRTLKPWEGRIYISE
notes: purified present-day enzyme; expression details in Text S1
Km [3]: 16.40 ± 0.73 mM
kcat [3]: 0.2688 ± 0.00167 s⁻¹
